From PubChem BioAssay AID463235 (The Scripps Research Institute Molecular Screening Center, 2010)
The source made the active and inactive calls. No rule for the calls is given here.

Assay: HCV RNA replicon replication inhibition, late-stage follow-up, HCV NS3 helicase inhibitor project, cell-based, luminescence (AID 463235)
Details: HCV replicon cells, RNA blot hybridization, 3 days; for IC90: measured here: 90% replicon inhibition

What does the source list for `CCCCCOc1ccc(C2C(C(=O)c3ccc(C)o3)=C(O)C(=O)N2c2cc(C)on2)cc1` (centres undefined)?
IC50: > 10 µM (inactive); IC90: > 10 µM

Which IC50 does the source give for `CCOc1cccc(C2C(C(=O)c3ccc(C)o3)=C(O)C(=O)N2Cc2ccccc2)c1` (centres undefined) here?
Its IC50 is > 10 µM (inactive).

What about the IC90 of the same molecule?
Its IC90 is > 10 µM.

Which IC50 does the source give for `COc1cccc(-n2c(SCc3cc(=O)oc4cc(O)c(O)cc34)nc3ccccc3c2=O)c1` here?
Its IC50 is > 10 µM (inactive).

What about the IC90 of the same molecule?
Its IC90 is > 10 µM.

What does the source list for `Cc1ccc(C(=O)C2=C(O)C(=O)N(Cc3ccco3)C2c2cccc(Cl)c2)o1` (centres undefined)?
IC50: > 10 µM (inactive); IC90: > 10 µM

With `Cc1cc(N2C(=O)C(O)=C(C(=O)c3ccc(C)o3)C2c2ccc(OCc3ccccc3)cc2)no1` (centres undefined) as the molecule, how does the IC50 read?
Its IC50 is > 10 µM (inactive).

What about the IC90 of the same molecule?
Its IC90 is > 10 µM.

For `COc1ccc(C=NNC(=O)c2cc(O)c(O)c(O)c2)cc1COc1ccc(C(=O)OCC(C)C)cc1`, which IC50 is on record?
Its IC50 is > 10 µM (inactive).

And the IC90?
Its IC90 is > 10 µM.

With `COc1cc(C2C(C(=O)c3ccc(C)o3)=C(O)C(=O)N2c2cc(C)on2)ccc1OCc1ccccc1` (centres undefined) as the molecule, how does the IC50 read?
The IC50 was > 10 µM (inactive).

What about the IC90 of the same molecule?
The IC90 was > 10 µM.
